According to PubChem BioAssay (NCI):
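Step 1: Grow cells in 96-well plates. Step 2: Expose to compound for 48 hours at 5 concentrations. Step 3: Interpolate endpoints linearly; if unreached, use highest concentration. Definition used: TGI = concentration required for complete inhibition of growth.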

What was measured:
Assay in all cases: NCI anticancer screen, dose series, 48 h
HL-60(TB) leukemia = system: HL-60(TB) leukemia
TK-10 renal = system: TK-10 renal
SK-OV-3 ovarian = system: SK-OV-3 ovarian
NCI-H226 lung = system: NCI-H226 lung
SF-268 CNS = system: SF-268 CNS
PC-3 prostate = system: PC-3 prostate
LOX IMVI melanoma = system: LOX IMVI melanoma
786-0 renal = system: 786-0 renal
HS 578T breast = system: HS 578T breast
HT29 colon = system: HT29 colon
HOP-92 NSCLC = system: HOP-92 NSCLC
MALME-3M melanoma = system: MALME-3M melanoma
A498 renal = system: A498 renal
SK-MEL-28 melanoma = system: SK-MEL-28 melanoma
NCI-H460 lung = system: NCI-H460 lung
SW-620 colon = system: SW-620 colon
SK-MEL-5 melanoma = system: SK-MEL-5 melanoma
SF-295 CNS = system: SF-295 CNS
T-47D breast = system: T-47D breast
UO-31 renal = system: UO-31 renal
HOP-62 NSCLC = system: HOP-62 NSCLC
DU-145 prostate = system: DU-145 prostate
HCT-15 colon = system: HCT-15 colon
RPMI-8226 leukemia = system: RPMI-8226 leukemia
SN12C renal = system: SN12C renal
MCF7 breast = system: MCF7 breast
UACC-62 melanoma = system: UACC-62 melanoma
NCI/ADR-RES ovarian = system: NCI/ADR-RES ovarian
U251 CNS = system: U251 CNS
OVCAR-5 ovarian = system: OVCAR-5 ovarian
SNB-75 CNS = system: SNB-75 CNS
IGROV1 ovarian = system: IGROV1 ovarian
MOLT-4 leukemia = system: MOLT-4 leukemia
CAKI-1 renal = system: CAKI-1 renal
SR leukemia = system: SR leukemia
HCT-116 colon = system: HCT-116 colon
NCI-H522 lung = system: NCI-H522 lung
MDA-MB-231 breast = system: MDA-MB-231 breast
ACHN renal = system: ACHN renal
NCI-H23 lung = system: NCI-H23 lung
CCRF-CEM leukemia = system: CCRF-CEM leukemia
SF-539 CNS = system: SF-539 CNS
MDA-MB-435 = system: MDA-MB-435
OVCAR-8 ovarian = system: OVCAR-8 ovarian
OVCAR-4 ovarian = system: OVCAR-4 ovarian
RXF 393 renal = system: RXF 393 renal
A549 NSCLC = system: A549 NSCLC
HCC-2998 colon = system: HCC-2998 colon
SK-MEL-2 melanoma = system: SK-MEL-2 melanoma
BT-549 breast = system: BT-549 breast
COLO 205 colon = system: COLO 205 colon
KM12 colon = system: KM12 colon
MDA-N = system: MDA-N
OVCAR-3 ovarian = system: OVCAR-3 ovarian
K-562 leukemia = system: K-562 leukemia
EKVX NSCLC = system: EKVX NSCLC
KM20L2 colon = system: KM20L2 colon

SMILES: COc1cccc2c(=O)oc(-c3ccccc3C)nc12
- TGI (HL-60(TB) leukemia): > 100 µM
- TGI (TK-10 renal): > 100 µM
- TGI (SK-OV-3 ovarian): > 100 µM
- TGI (NCI-H226 lung): 57.8 µM
- TGI (SF-268 CNS): > 100 µM
- TGI (PC-3 prostate): > 100 µM
- TGI (LOX IMVI melanoma): 36.6 µM
- TGI (786-0 renal): > 100 µM
- TGI (HS 578T breast): > 100 µM
- TGI (HT29 colon): > 100 µM
- TGI (HOP-92 NSCLC): > 100 µM
- TGI (MALME-3M melanoma): > 100 µM
- TGI (A498 renal): > 100 µM
- TGI (SK-MEL-28 melanoma): > 100 µM
- TGI (NCI-H460 lung): > 100 µM
- TGI (SW-620 colon): > 100 µM
- TGI (SK-MEL-5 melanoma): 57.7 µM
- TGI (SF-295 CNS): 88.9 µM
- TGI (T-47D breast): > 100 µM
- TGI (UO-31 renal): > 100 µM
- TGI (HOP-62 NSCLC): 76.3 µM
- TGI (DU-145 prostate): > 100 µM
- TGI (HCT-15 colon): > 100 µM
- TGI (RPMI-8226 leukemia): > 100 µM
- TGI (SN12C renal): 69.4 µM
- TGI (MCF7 breast): > 100 µM
- TGI (UACC-62 melanoma): > 100 µM
- TGI (NCI/ADR-RES ovarian): > 100 µM
- TGI (U251 CNS): > 100 µM
- TGI (OVCAR-5 ovarian): > 100 µM
- TGI (SNB-75 CNS): > 100 µM
- TGI (IGROV1 ovarian): 96.8 µM
- TGI (MOLT-4 leukemia): 68 µM
- TGI (CAKI-1 renal): > 100 µM
- TGI (SR leukemia): > 100 µM
- TGI (HCT-116 colon): > 100 µM
- TGI (NCI-H522 lung): > 100 µM
- TGI (MDA-MB-231 breast): > 100 µM
- TGI (ACHN renal): > 100 µM
- TGI (NCI-H23 lung): > 100 µM
- TGI (CCRF-CEM leukemia): 73 µM
- TGI (SF-539 CNS): 69.4 µM
- TGI (MDA-MB-435): > 100 µM
- TGI (OVCAR-8 ovarian): > 100 µM
- TGI (OVCAR-4 ovarian): 70.6 µM
- TGI (RXF 393 renal): > 100 µM
- TGI (A549 NSCLC): > 100 µM
- TGI (HCC-2998 colon): > 100 µM
- TGI (SK-MEL-2 melanoma): 67.5 µM
- TGI (BT-549 breast): 48.2 µM
- TGI (COLO 205 colon): > 100 µM
- TGI (KM12 colon): > 100 µM
- TGI (MDA-N): 39.1 µM
- TGI (OVCAR-3 ovarian): > 100 µM
- TGI (K-562 leukemia): > 100 µM
- TGI (EKVX NSCLC): > 100 µM

SMILES: CCCCCCC(=O)OC[n+]1ccc2c(C)c3[nH]c4ccc(OC)cc4c3c(C)c2c1
- TGI (HL-60(TB) leukemia): 1.7 µM
- TGI (TK-10 renal): 10.4 µM
- TGI (SK-OV-3 ovarian): 3.83 µM
- TGI (KM20L2 colon): 5.32 µM
- TGI (PC-3 prostate): 1.51 µM
- TGI (LOX IMVI melanoma): 1.5 µM
- TGI (HOP-92 NSCLC): 3.49 µM
- TGI (MALME-3M melanoma): 14.2 µM
- TGI (A498 renal): 2.02 µM
- TGI (NCI-H460 lung): 1.02 µM
- TGI (SW-620 colon): 1.78 µM
- TGI (SF-295 CNS): 1.59 µM
- TGI (T-47D breast): 11.5 µM
- TGI (UO-31 renal): 5.48 µM
- TGI (DU-145 prostate): 3.59 µM
- TGI (HCT-15 colon): 1.24 µM
- TGI (RPMI-8226 leukemia): 2.1 µM
- TGI (SN12C renal): 1.91 µM
- TGI (MCF7 breast): 1.75 µM
- TGI (OVCAR-5 ovarian): 2.75 µM
- TGI (IGROV1 ovarian): 3.83 µM
- TGI (CAKI-1 renal): 6.69 µM
- TGI (SR leukemia): 3.46 µM
- TGI (MDA-MB-231 breast): 2.36 µM
- TGI (ACHN renal): 4.88 µM
- TGI (CCRF-CEM leukemia): 1.63 µM
- TGI (SF-539 CNS): 1.67 µM
- TGI (MDA-MB-435): 1.79 µM
- TGI (OVCAR-8 ovarian): 2.12 µM
- TGI (A549 NSCLC): 1.88 µM
- TGI (HCC-2998 colon): 2.68 µM
- TGI (SK-MEL-2 melanoma): 9.35 µM
- TGI (COLO 205 colon): 1.34 µM
- TGI (MDA-N): 1.59 µM
- TGI (OVCAR-3 ovarian): 4.84 µM
- TGI (K-562 leukemia): 1.31 µM
